Experimental data: patent US10093683B2, “Factor XIa inhibitors” (Merck Sharp & Dohme Corp., priority 2014, dated 2018)
Read-outs that look alike come from different tables or passages of the source.

How the values were obtained:
human Factor XIa = human Factor XIa (Homo sapiens (Human), UniProt P03951); experiment: Factor XIa Assay; assay type: biochemical; settings: read-out: FXIa Ki
Summary of the method: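 Ki derived from the dependence of Vo/Vi on inhibitor concentration under a competitive-inhibition model, after pre-equilibration of enzyme and inhibitor. Reaction: 40 pM human FXIa, 100 μM Z-Gly-Pro-Arg-AFC, HEPES 50 mM pH 7.4 with NaCl, CaCl2 and PEG 8000; run at room temperature or 37° C.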

Human plasma kallikrein = Human plasma kallikrein (Homo sapiens (Human), UniProt P03952); experiment: Kallikrein Assay; assay type: biochemical; settings: purified Human plasma kallikrein 0.5 nM, Acetyl-K-P-R-AFC, pH 7.4; Ki from IC50 by Cheng Prusoff
Summary of the method: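 Purified human plasma kallikrein (0.5 nM final) with Acetyl-K-P-R-AFC substrate ([…]) in 50 mM HEPES pH 7.4, 150 mM NaCl, 5 mM CaCl2, 0.1% PEG 8000, after enzyme-inhibitor equilibration. Fluorescence (405 ex/510 em) under linear conditions; IC50 from four-parameter fit, converted to Ki by Cheng-Prusoff.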

[1] = purified human Factor XIa 40 pM, Z-Gly-Pro-Arg-AFC 100 μM, pH 7.4

Sequence of human Factor XIa (P03951 388-625): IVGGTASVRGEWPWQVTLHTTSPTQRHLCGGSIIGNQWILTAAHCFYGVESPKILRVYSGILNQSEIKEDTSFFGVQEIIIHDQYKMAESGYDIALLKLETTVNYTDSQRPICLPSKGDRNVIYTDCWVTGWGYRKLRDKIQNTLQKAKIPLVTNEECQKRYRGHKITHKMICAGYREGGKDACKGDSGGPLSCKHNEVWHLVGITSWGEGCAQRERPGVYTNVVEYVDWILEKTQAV
Sequence of human Factor XIa (P03951 19-387 partner): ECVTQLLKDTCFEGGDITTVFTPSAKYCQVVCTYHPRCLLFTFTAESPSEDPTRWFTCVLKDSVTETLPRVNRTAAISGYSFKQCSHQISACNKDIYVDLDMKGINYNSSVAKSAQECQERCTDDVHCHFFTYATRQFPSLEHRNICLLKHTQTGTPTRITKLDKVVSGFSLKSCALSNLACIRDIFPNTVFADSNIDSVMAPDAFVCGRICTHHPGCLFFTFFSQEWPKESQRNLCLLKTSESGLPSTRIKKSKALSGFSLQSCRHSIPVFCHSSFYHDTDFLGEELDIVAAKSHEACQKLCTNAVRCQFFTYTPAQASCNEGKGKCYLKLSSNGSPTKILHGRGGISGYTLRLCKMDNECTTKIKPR
Sequence of Human plasma kallikrein (P03952 391-638): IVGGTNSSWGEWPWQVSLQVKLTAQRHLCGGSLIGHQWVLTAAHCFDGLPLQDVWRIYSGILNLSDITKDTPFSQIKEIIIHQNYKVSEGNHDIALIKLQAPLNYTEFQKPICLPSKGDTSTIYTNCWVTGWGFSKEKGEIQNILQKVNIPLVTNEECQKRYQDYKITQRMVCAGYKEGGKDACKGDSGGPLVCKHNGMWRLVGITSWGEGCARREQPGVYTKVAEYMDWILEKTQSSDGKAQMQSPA
Sequence of Human plasma kallikrein (P03952 20-390 partner): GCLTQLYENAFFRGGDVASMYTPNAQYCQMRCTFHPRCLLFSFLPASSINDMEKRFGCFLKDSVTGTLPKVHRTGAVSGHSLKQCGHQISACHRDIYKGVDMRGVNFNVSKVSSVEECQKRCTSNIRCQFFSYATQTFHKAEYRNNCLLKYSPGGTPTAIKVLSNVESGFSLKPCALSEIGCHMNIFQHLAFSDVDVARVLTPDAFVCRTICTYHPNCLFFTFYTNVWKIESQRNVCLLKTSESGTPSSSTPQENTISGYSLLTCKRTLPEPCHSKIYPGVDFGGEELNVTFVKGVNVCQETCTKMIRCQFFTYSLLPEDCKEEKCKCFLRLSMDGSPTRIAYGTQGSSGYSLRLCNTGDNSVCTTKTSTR

Row | Compound | Ki (human Factor XIa; [1]) | Ki (Human plasma kallikrein) | Ki (human Factor XIa)
1 | COC(=O)Nc1ccc(C(=O)N[C@@H](CC(=O)N2CC[C@@H](OC)C2)C(=O)N2CCC[C@@]3(C2)OC(=O)Nc2ccc(Cl)cc23)cc1 [Example 101, methyl (4-(((S)-1-((R)-6-chloro-2-oxo-1,2-dihydrospiro[benzo[d][1,3]oxazine-4,3′-piperidin]-1′-yl)-4-((R)-3-methoxypyrrolidin-1-yl)-1,4-dioxobutan-2-yl)carbamoyl)phenyl)carbamate] | 36.4 nM | 10.3 nM | –
2 | COC(=O)Nc1ccc(C(=O)N[C@@H](CC(=O)N2CC[C@@H]2C)C(=O)N2CCC[C@@]3(C2)OC(=O)Nc2ccc(Cl)cc23)cc1 [Example 102, methyl (4-(((S)-1-((R)-6-chloro-2-oxo-1,2-dihydrospiro[benzo[d][1,3]oxazine-4,3′-piperidin]-1′-yl)-4-((S)-2-methylazetidin-1-yl)-1,4-dioxobutan-2-yl)carbamoyl)phenyl)carbamate] | 0.77 nM | < 1.36 nM | –
3 | COC(=O)Nc1ccc(C(=O)N[C@@H](CC(C)O)C(=O)N2CCC3(C2)OC(=O)Nc2ccc(Cl)cc23)cc1 (stereo partly drawn) [Example 110, methyl (4-(((2S)-1-((R)-6-chloro-2-oxo-1,2-dihydrospiro[benzo[d][1,3]oxazine-4,3′-pyrrolidin]-1′-yl)-4-hydroxy-1-oxopentan-2-yl)carbamoyl)phenyl)carbamate] | 52 nM | 147 nM | –
4 | O=C1Nc2ccc(Cl)c(F)c2[C@@]2(CCCN(C(=O)C(Cc3ccccc3)c3ncc(-c4ccc(C(=O)O)s4)[nH]3)C2)O1 (stereo partly drawn) [Example 123, 5-(2-(1-((R)-6-chloro-5-fluoro-2-oxo-1,2-dihydrospiro[benzo[d][1,3]oxazine-4,3′-piperidin]-1′-yl)-1-oxo-3-phenylpropan-2-yl)-1H-imidazol-5-yl)thiophene-2-carboxylic acid] | 15.1 nM | 4.65 nM | –
5 | COC(=O)Nc1cccc(C(=O)N[C@@H](Cc2ccccc2)C(=O)N2CCC3(C2)OC(=O)Nc2ccc(Cl)cc23)c1 (stereo partly drawn) [Example 143, methyl (3-(((2S)-1-(6-chloro-2-oxo-1,2-dihydrospiro[benzo[d][1,3]oxazine-4,3′-pyrrolidin]-1′-yl)-1-oxo-3-phenylpropan-2-yl)carbamoyl)phenyl)carbamate] | – | 2.63 nM | 1250 nM
6 | O=C1COc2cc(C(=O)N[C@@H](Cc3ccccc3)C(=O)N3CCC4(C3)OC(=O)Nc3ccc(Cl)cc34)ccc2N1 (some centres unmarked) [Example 171] | – | 58 nM | 21.8 nM
7 | O=C(Nc1ccc(C(=O)N[C@@H](Cc2ccccc2)C(=O)N2CCC3(C2)OC(=O)Nc2ccc(Cl)cc23)cc1)OCCN1CCOCC1 (stereo partly drawn) [Example 191, 2-morpholinoethyl (4-(((2S)-1-(6-chloro-2-oxo-1,2-dihydrospiro[benzo[d][1,3]oxazine-4,3′-pyrrolidin]-1′-yl)-1-oxo-3-phenylpropan-2-yl)carbamoyl)phenyl)carbamate] | – | 123 nM | 33.5 nM
8 | O=C(Nc1ccc(C(=O)N[C@@H](Cc2ccccc2)C(=O)N2CCC3(C2)OC(=O)Nc2ccc(Cl)cc23)cc1)OC[C@@H]1CCCO1 (stereo partly drawn) [Example 194, ((S)-tetrahydrofuran-2-yl)methyl (4-(((2S)-1-(6-chloro-2-oxo-1,2-dihydrospiro[benzo[d][1,3]oxazine-4,3′-pyrrolidin]-1′-yl)-1-oxo-3-phenylpropan-2-yl)carbamoyl)phenyl)carbamate] | – | 30.9 nM | 5.48 nM
9 | Nc1n[nH]c2cc(C(=O)N[C@@H](Cc3ccccc3)C(=O)N3CC[C@@]4(C3)OC(=O)Nc3ccc(Cl)c(F)c34)ccc12 [Example 195] | – | 1.9 nM | 1 nM
10 | Nc1n[nH]c2cc(C(=O)N[C@@H](Cc3ccccc3)C(=O)N3CCC[C@@]4(C3)OC(=O)Nc3ccc(Cl)cc34)ccc12 [Example 197] | – | 1.3 nM | 0.62 nM
11 | O=C1Nc2ccc(Cl)cc2[C@@]2(CCN(C(=O)[C@H](Cc3ccccc3)NC(=O)c3ccc4[nH]c(=O)c(=O)[nH]c4c3)C2)O1 [Example 198] | – | 30.1 nM | 2.77 nM
12 | Nc1n[nH]c2cc(C(=O)N[C@@H](CC3CC3)C(=O)N3CCC[C@@]4(C3)OC(=O)Nc3ccc(Cl)cc34)ccc12 [Example 200] | – | 1 nM | 4.4 nM
13 | Nc1ccc(C(=O)N[C@@H](Cc2ccc(F)cc2)C(=O)N2CCC[C@@]3(C2)OC(=O)Nc2ccc(Cl)cc23)cc1C(=O)O [Example 208, 2-amino-5-(((S)-1-((R)-6-chloro-2-oxo-1,2-dihydrospiro[benzo[d][1,3]oxazine-4,3′-piperidin]-1′-yl)-3-(4-fluorophenyl)-1-oxopropan-2-yl)carbamoyl)benzoic acid] | – | 1.95 nM | 1.63 nM

The remaining compounds from weak to strong by Ki (Human plasma kallikrein), led by results:

Row | Ki (human Factor XIa; [1]) | Ki (Human plasma kallikrein) | Ki (human Factor XIa) | Compound
14 | – | 155 nM | 42 nM | O=C1Nc2ccc(Cl)cc2C2(CCN(C(=O)[C@H](Cc3ccccc3)NC(=O)c3ccc(Nc4ncc[nH]4)cc3)C2)O1 (some centres unmarked) [Example 188]
15 | 12 nM | 76 nM | – | COC(=O)Nc1ccc(C(=O)N[C@@H](CC(C)(C)O)C(=O)N2CC[C@@]3(C2)OC(=O)Nc2ccc(Cl)cc23)cc1 [Example 111, methyl (4-(((S)-1-((R)-6-chloro-2-oxo-1,2-dihydrospiro[benzo[d][1,3]oxazine-4,3′-pyrrolidin]-1′-yl)-4-hydroxy-4-methyl-1-oxopentan-2-yl)carbamoyl)phenyl)carbamate]
16 | – | 51.3 nM | 17.6 nM | CNC(=O)Nc1ccc(C(=O)N[C@@H](Cc2ccccc2)C(=O)N2CCC3(C2)OC(=O)Nc2ccc(Cl)cc23)cc1 (stereo partly drawn) [Example 189, N-((2S)-1-(6-chloro-2-oxo-1,2-dihydrospiro[benzo[d][1,3]oxazine-4,3′-pyrrolidin]-1′-yl)-1-oxo-3-phenylpropan-2-yl)-4-(3-methylureido)benzamide]
17 | – | 50.7 nM | 18.7 nM | Nc1nc2ccc(C(=O)N[C@@H](Cc3ccccc3)C(=O)N3CCC4(C3)OC(=O)Nc3ccc(Cl)cc34)cc2s1 (some centres unmarked) [Example 181]
18 | – | 36 nM | 9.4 nM | COCCOC(=O)Nc1ccc(C(=O)N[C@@H](Cc2ccccc2)C(=O)N2CCC3(C2)OC(=O)Nc2ccc(Cl)cc23)cc1 (stereo partly drawn) [Example 164, 2-methoxyethyl (4-(((2S)-1-(6-chloro-2-oxo-1,2-dihydrospiro[benzo[d][1,3]oxazine-4,3′-pyrrolidin]-1′-yl)-1-oxo-3-phenylpropan-2-yl)carbamoyl)phenyl)carbamate]
19 | – | 27.5 nM | 14.6 nM | O=C1CSc2cc(C(=O)N[C@@H](Cc3ccccc3)C(=O)N3CCC4(C3)OC(=O)Nc3ccc(Cl)cc34)ccc2N1 (some centres unmarked) [Example 165]
20 | 39.9 nM | 19.7 nM | – | COC(=O)Nc1ccc(C(=O)N[C@@H](CC(=O)N2CC(O)(C3CC3)C2)C(=O)N2CCC[C@@]3(C2)OC(=O)Nc2ccc(Cl)cc23)cc1 [Example 100, methyl (4-(((S)-1-((R)-6-chloro-2-oxo-1,2-dihydrospiro[benzo[d][1,3]oxazine-4,3′-piperidin]-1′-yl)-4-(3-cyclopropyl-3-hydroxyazetidin-1-yl)-1,4-dioxobutan-2-yl)carbamoyl)phenyl)carbamate]
21 | 40.4 nM | 17.6 nM | – | COC(=O)Nc1ccc(C(=O)N[C@@H](CC(=O)NCC2CC2)C(=O)N2CCC[C@@]3(C2)OC(=O)Nc2ccc(Cl)cc23)cc1 [Example 99, methyl (4-(((S)-1-((R)-6-chloro-2-oxo-1,2-dihydrospiro[benzo[d][1,3]oxazine-4,3′-piperidin]-1′-yl)-4-((cyclopropylmethyl)amino)-1,4-dioxobutan-2-yl)carbamoyl)phenyl)carbamate]
22 | – | 7.72 nM | 5000 nM | Cc1ncc(C(=O)N[C@@H](Cc2ccccc2)C(=O)N2CCC3(C2)OC(=O)Nc2ccc(Cl)cc23)cn1 (some centres unmarked) [Example 144]
23 | 15 nM | 5.28 nM | – | COC(=O)Nc1ccc(C(=O)N[C@@H](CC(F)F)C(=O)N2CCC[C@@]3(C2)OC(=O)Nc2ccc(Cl)c(F)c23)cc1 [Example 104, methyl (4-(((S)-1-((R)-6-chloro-5-fluoro-2-oxo-1,2-dihydrospiro[benzo[d][1,3]oxazine-4,3′-piperidin]-1′-yl)-4,4-difluoro-1-oxobutan-2-yl)carbamoyl)phenyl)carbamate]
24 | 10.2 nM | 4.92 nM | – | COC(=O)Nc1ccc(C(=O)N[C@@H](CC(C)(C)OC)C(=O)N2CCC[C@@]3(C2)OC(=O)Nc2ccc(Cl)c(F)c23)cc1 [Example 119, methyl (4-(((2S)-1-(6-chloro-5-fluoro-2-oxo-1,2-dihydrospiro[benzo[d][1,3]oxazine-4,3′-piperidin]-1′-yl)-4-methoxy-4-methyl-1-oxopentan-2-yl)carbamoyl)phenyl)carbamate]
25 | 9.99 nM | 3.04 nM | – | COC(=O)Nc1ccc(C(=O)N[C@@H](CCF)C(=O)N2CCC[C@@]3(C2)OC(=O)Nc2ccc(Cl)c(F)c23)cc1 [Example 105, methyl (4-(((S)-1-((R)-6-chloro-5-fluoro-2-oxo-1,2-dihydrospiro[benzo[d][1,3]oxazine-4,3′-piperidin]-1′-yl)-4-fluoro-1-oxobutan-2-yl)carbamoyl)phenyl)carbamate]
26 | – | 2.1 nM | 10.3 nM | O=C1Nc2ccc(Cl)cc2[C@@]2(CCCN(C(=O)[C@H](Cc3ccccc3)NC(=O)c3ccc(C(=O)O)s3)C2)O1 [Example 203]
27 | – | 1.7 nM | 14.5 nM | CNc1cc(C(=O)N[C@@H](Cc2ccccc2)C(=O)N2CCC[C@@]3(C2)OC(=O)Nc2ccc(Cl)cc23)ccn1 [Example 206]
28 | – | 0.6 nM | 0.6 nM | O=C1Nc2ccc(Cl)cc2[C@@]2(CCCN(C(=O)[C@H](Cc3ccccc3)NC(=O)c3ccc4[nH]c(=O)cc(O)c4c3)C2)O1 [Example 199]
